What all share (type): cell-based
One data set relates to C. albicans. The experiment in a line: Fungicidal effect of lactate compared with HCl at identical pH (FIG. 1). The conditions noted are these: 5% solution at pH 3.8; incubation at 37 C for two hours; control 1,000,000CFU.
Data set [1] deals with group B Streptococcus strain (GBS) CCUG 49086. The data set can be described thus: Minimum microbicidal concentration of lactate (microbicidal assay). Particulars: for Remaining viability: 2.5 h at 37° C.; for killed: after 2.5 h of incubation. The procedure: (§1) E.coli O6K5 (a urinary tract infection pathogen), a group B Streptococcus strain (GBS) CCUG 49086, and C.albicans ATCC 64549, The microorganisms were incubated over night in BHI medium. Thereafter the suspensions were transferred to new tubes and incubated for 2.5 h at 37° C. The cells were washed and suspended in diluted BHI ( 1/100, BHIdll). The suspensions were measured spectrophotometrically at 590 nm and the concentrations of the microrganisms adjusted according to standard curves. The bacterial suspensions were adjusted to 2×10^8CFU per ml and C.albicans
(§2) One lactate suppository was dissolved in 0.5 ml of distilled water. A lactate solution of 11.5% was obtained. This solution was used in the microbicidal assay.
(§3) The lactate solution was serially diluted in BHIdll by twofold steps in tubes (100 μl piper tube). The bacterial and yeast cell solutions were added in 10 μl volumes to give a final concentration of approximately 2×10^7 and 1×10^5 cells per ml respectively. The tubes were incubated at 37° C. on a shaker for 2.5 h. Five ul were taken from each tube and added as a drop (in triplicate) onto a blood agar plate and incubated over night at 37° C. The killing was expressed as remaining colony forming units (CFU) in relation to the inoculum. The lower limit for detection of microorganisms was 200 CFU/ml. The viability of any remaining microorganism in the tubes was checked by diluting the remaining solutions to 1/5 with growth medium, resulting in a 2.3% lactate solution or less, and incubation of the tubes over night at 37 C. The next day, once again 5 μl of the solutions were applied as drops onto blood agar plates and incubated at 37° C. over night.

The subject of another data set is C.albicans ATCC 64549. Described as above. The conditions noted are these: for killed: after 2.5 h of incubation; for Remaining viability: 2.5 h at 37° C. The procedure:
as §1, §2, §3

The test system of another data set is E.coli O6K5. Described as above. Particulars: for Remaining viability: 2.5 h at 37° C. The procedure:
as §1, §2, §3

Structures can show the parent of a compound that is named as a salt. Some results are limits rather than exact numbers.

In the case of `Cl` [HCl, reference compound], the “viable colony forming units of C. albicans” value in the data set on C. albicans was 100,000 CFU.

Take `CC(O)C(=O)O` (stereo not shown) [lactate]: the “viable colony forming units of C. albicans” value in the data set with C. albicans is reported as < 100 CFU. Besides, the “lactate concentration that effectively killed the pathogen” value (in data set [1] (2.5 h incubation); with C.albicans ATCC 64549 (2.5 h incubation); with E.coli O6K5 (2.5 h incubation)) was ≥ 5.8% throughout. The Remaining viability result was “+ (no distinguishable colonies (>50 CFU per area = >10^4 CFU per ml))” in data set [1] (lactate concentration 0.35%); “+ (no distinguishable colonies (>50 CFU per area = >10^4 CFU per ml))” in data set [1] (lactate concentration 0.7%); “+ (no distinguishable colonies (>50 CFU per area = >10^4 CFU per ml))” in data set [1] (lactate concentration 1.4%); “+ (no distinguishable colonies (>50 CFU per area = >10^4 CFU per ml))” in data set [1] (lactate concentration 2.9%); 0 in data set [1] (lactate concentration 5.8%); 0 in data set [1] (lactate concentration 11.5%). Moreover, the Remaining viability entry was “+ (no distinguishable colonies (>50 CFU per area = >10^4 CFU per ml))” in the data set on C.albicans ATCC 64549 (lactate concentration 0.35%); “+ (no distinguishable colonies (>50 CFU per area = >10^4 CFU per ml))” in the data set with C.albicans ATCC 64549 (lactate concentration 0.7%); “+ (no distinguishable colonies (>50 CFU per area = >10^4 CFU per ml))” in the data set with C.albicans ATCC 64549 (lactate concentration 1.4%); “+ (no distinguishable colonies (>50 CFU per area = >10^4 CFU per ml))” in the data set with C.albicans ATCC 64549 (lactate concentration 2.9%); 0.6 ± 0.4^¤ percentage of the inoculum with C.albicans ATCC 64549 (lactate concentration 5.8%); 0 in the data set with C.albicans ATCC 64549 (lactate concentration 11.5%). Further, the Remaining viability in the data set with E.coli O6K5 (lactate concentration 0.35%), in the data set on E.coli O6K5 (lactate concentration 0.7%), in the data set with E.coli O6K5 (lactate concentration 1.4%), in the data set on E.coli O6K5 (lactate concentration 2.9%), in the data set on E.coli O6K5 (lactate concentration 5.8%) and in the data set with E.coli O6K5 (lactate concentration 11.5%) was 0 in each case. In addition, the killed is given as 100% in data set [1] (lactate concentration 5.8%); 100% in data set [1] (lactate concentration 11.5%); 99.4% with C.albicans ATCC 64549 (5.8% of lactate); 100% in the data set on C.albicans ATCC 64549 (11.5% of lactate); 100% in the data set on E.coli O6K5 (lowest concentration of lactate tested (0.35%), after 2.5 h of incubation).

The record behind these values is patent US10016358B2 (ROLF KULLGREN AB, priority 2008, dated 2018).
